{"source": "patent US6531462B2", "about": "“Medicament for treating obesity and improving lipid metabolism” (priority 1997, dated 2003)", "key": {"[1]": {"experiment": "Example 1: body weight, body fat and feed intake of mice fed feed supplemented with 0.5% test compound", "type": "in vivo, CDF1 male mice", "experimental": "(§1) 5-Sitosten-3-one was prepared according to the method of Parish (Parish, E. J., et al., Synthetic Communication, 22, pp.2839-2847, 1992) by using β-sitosterol (Tokyo Chemical Industry Co., Ltd.) as a starting material and used in the experiments. The content ratio of 24-ethyl and 24-methyl compounds in the synthesized product was 6.5:3.5. As experimental animals, six CDF1 male mice (5-week old, Charles River Japan Inc.) were used in each experimental group. The animals were fed in aluminum cages for mice, and allowed to feed and water ad libitum. The animals were fed for 2 weeks under feeding conditions at a temperature of 24±1° C. and a relative humidity of 55±5%, where light and darkness were controlled to change every 12 hours, and each cage and floor mat (white flakes) were exchanged twice a week.\n(§2) Modified AIN (Oriental Yeast Co.) was used as basic feed and mixed with 0.5% 5-sitosten-3-one to prepare test feeds. A feed used as a positive control was prepared by adding 0.5% of 4-cholesten-3-one (Japanese Patent Unexamined Publication No. Hei 5-170651/1993) to the basic feed. Non-treated mice as a control were fed solely with the basic feed. The basic feed was composed of 22.8% crude protein, 54.1% carbohydrates, 6.0% lipids, 4.9% fibers, 2.9% ash, and 8.7% water, and its calorie was 1,523 kJ. The feed was stored at 4° C. after preparation, and a fresh feed was supplied every day.\n(§3) The animals were weighed at given intervals of time, and the average values and standard errors of the experimental groups were determined. In addition, feed consumptions were measured at given intervals of time and daily averages per mouse were determined. The animals were observed every day. After the end of the feeding, the animals were anesthetized to death with carbon dioxide gas, and bloods were collected from the vena cava to obtain serums. The animals were autopsied, and the brains, lungs, hearts, livers, spleens, kidneys, testis, adrenals and intraperitoneal fat were examined by the naked eye and weighed. As to serum lipid, neutral fats were measured by using a clinical test kit based on the enzyme method (Triglyceride-E Test, Wako Pure Chemicals Industries Co., Ltd.), and total cholesterol and cholestanol were measured by the method of Kasama (T. Kasama, et al., J. Chromatogr., 400, 241, 1987) with modifications, where the amount of benzoyl chloride was increased by 10 times, the reaction time was doubled, and the measurement was performed by using a high performance liquid chromatography system. Significant differences were determined by t-test for body weights and serum lipids on the basis of the non-treated control mice."}, "[2]": {"experiment": "Feeding of rats with feed with 0.5% addition for 4 weeks (organ changes)", "type": "in vivo", "settings": "Fischer F344 rats", "description": "The changes observed in the livers, pancreases, kidneys, and lungs in the groups treated with the medicament were commonly observed in the lipid-free feed group, although the degrees were different. In the lipid-free feed group, absolute weight and relative weight of livers increased by 4% and 6%, respectively, and absolute weight and relative weight of kidneys decreased by 12% and 11%, respectively. […] These changes were not observed when Fischer F344 rats were fed with the feed with 0.5% addition for 4 weeks, and therefore, the changes were considered as unique to CDF1 mice."}, "[3]": {"experiment": "Example 3: dose response of 5-sitosten-3-one on serum lipids", "type": "in vivo, CDF1 male mice", "settings": "for Free fatty acid / HDL-cholesterol / Phospholipid / Total cholesterol / Triglyceride: 3 weeks, mean (n=6) ± standard error", "description": "(§4) 5Sitosten-3-one was synthesized from β-sitosterol (Tokyo Chemical Industry Co., Ltd.) according to the method of Parish (Parish, E. J., et al., Synthetic Communication, 22, pp.2839-2847, 1992), and purified by silica gel column chromatography and recrystallization. The content ratio of 24-ethyl isomer and 24-methyl compounds in the synthesized product was 6.5:3.5. As experimental animals, thirty 4-week old CDF1 male mice were purchased from Charles River Japan Inc. and divided into five experimental groups each composed of six mice. The test compounds were administered as the admixture in feeds, and the following groups were provided: (1) 0.1% addition, (2) 0.3% addition, (3) 0.5% addition, (4) a lipid-free feed without the addition of the test compound, and (5) control group without the addition of the test compound. A purified feed (modified AIN, Oriental Yeast Co.) was used as a basic feed, and supplemented with 10% soybean oil (Wako Pure Chemical Industries Co., Ltd.) to prepare solid feeds with or without the addition of the test compound. The lipid-free feed, per se, was processed to obtain solid feed. The animals were fed for a week with the feed for the control without the addition of test compound for acclimatization, and then the animals were allowed to feed with the respective feed ad libitum.\n(§5) Each group of animals was housed in an aluminum cages of 22×33×11(h)cm (6 mice per a cage), and feedings were carried out at a temperature of 24±1° C. and a relative humidity of 55±5%, where light and darkness were controlled change every 12 hours. Measurements of body weights and feed intakes, and observations of general conditions were conducted three times a week. After the feeding for 3 week with the test feeds, the animals were subjected to autopsy and their bloods were collected. As serum lipid analyses, triglyceride, phospholipid, free fatty acid, total cholesterol, and HDL-cholesterol were measured by using a clinical test kit (Wako Pure Chemicals Industries Co., Ltd. ). Significances of the resulting values were examined by the variance analysis for the groups treated with the medicament, or by the t-test for the lipid-free feed group."}, "[4]": {"experiment": "Example 1: general conditions and autopsical finding", "type": "in vivo, CDF1 male mice", "settings": "0.5% in feed, 2 weeks", "experimental": "as §1, §2, §3"}, "[5]": {"experiment": "Example 1: serum lipids and serum metabolites of mice fed feed supplemented with 0.5% test compound", "type": "in vivo", "settings": "for Serum metabolite: metabolite of the test compound detected in serum", "experimental": "as §1, §2, §3"}, "[6]": {"experiment": "Example 3: general conditions and weight of organs", "type": "in vivo, CDF1 male mice", "description": "as §4, §5"}, "[7]": {"experiment": "Example 3: dose response of 5-sitosten-3-one on body weight, feed intake, feed efficiency and intraperitoneal fat", "type": "in vivo, CDF1 male mice", "settings": "for Intraperitoneal fat: 3 weeks, mean (n=6) ± standard error; for Body weight gain: total throughout the experimental period", "description": "as §4, §5"}, "[8]": {"settings": "ratio relative to the non-treated control group, CDF1 mice"}}, "data": [{"substance": "5-sitosten-3-one (24-ethylcholest-5-en-3-one)", "values": [{"measurement": "Amount of intraperitoneal fat relative to non-treated control mice (FIG. 2)", "setting": "[1]; 0.5% in feed for two weeks", "value": "half"}, {"measurement": "Body fat (subcutaneous fat and intraperitoneal fat)", "setting": "[1]; 0.5% in feed for two weeks", "value": "Remarkable decreases"}, {"measurement": "Increase in body weight (FIG. 1)", "setting": "[1]; 0.5% in feed, compared to non-treated control mice", "value": "remarkably suppressed"}, {"measurement": "Body weight gain", "setting": "[1]; [8]", "value": 56, "unit": "%"}, {"measurement": "Intraperitoneal fat", "setting": "[1]; [8]", "value": 50, "unit": "%"}, {"measurement": "Organ weight changes (livers, pancreases, kidneys, lungs)", "setting": "[2]", "value": "not observed"}, {"measurement": "Free fatty acid", "setting": "[3]; 0.1% addition to feed", "value": "1.41 ± 0.04", "unit": "mEq/dl"}, {"measurement": "HDL-cholesterol", "setting": "[3]; 0.1% addition to feed", "value": "68.7 ± 13.6", "unit": "mg/dL"}, {"measurement": "Phospholipid", "setting": "[3]; 0.1% addition to feed", "value": "237.8 ± 8.9", "unit": "mg/dL"}, {"measurement": "Total cholesterol", "setting": "[3]; 0.1% addition to feed", "value": "164.8 ± 4.0", "unit": "mg/dL"}, {"measurement": "Triglyceride", "setting": "[3]; 0.1% addition to feed", "value": "145.4 ± 8.5", "unit": "mg/dL"}, {"measurement": "Change in HDL-cholesterol", "setting": "[3]; 0.1-0.5% addition groups", "value": "no significant change"}, {"measurement": "Free fatty acid", "setting": "[3]; 0.3% addition to feed", "value": "1.05 ± 0.06", "unit": "mEq/dl"}, {"measurement": "HDL-cholesterol", "setting": "[3]; 0.3% addition to feed", "value": "72.5 ± 7.7", "unit": "mg/dL"}, {"measurement": "Phospholipid", "setting": "[3]; 0.3% addition to feed", "value": "187.0 ± 12.2", "unit": "mg/dL"}, {"measurement": "Total cholesterol", "setting": "[3]; 0.3% addition to feed", "value": "125.5 ± 7.6", "unit": "mg/dL"}, {"measurement": "Triglyceride", "setting": "[3]; 0.3% addition to feed", "value": "78.0 ± 0.9", "unit": "mg/dL"}, {"measurement": "Triglyceride as compared to the control group (decrease down to)", "setting": "[3]; 0.5% addition group", "value": 26, "unit": "%"}, {"measurement": "Free fatty acid", "setting": "[3]; 0.5% addition to feed", "value": "0.87 ± 0.05", "unit": "mEq/dl"}, {"measurement": "HDL-cholesterol", "setting": "[3]; 0.5% addition to feed", "value": "61.7 ± 4.3", "unit": "mg/dL"}, {"measurement": "Phospholipid", "setting": "[3]; 0.5% addition to feed", "value": "172.5 ± 8.6", "unit": "mg/dL"}, {"measurement": "Total cholesterol", "setting": "[3]; 0.5% addition to feed", "value": "102.9 ± 6.4", "unit": "mg/dL"}, {"measurement": "Triglyceride", "setting": "[3]; 0.5% addition to feed", "value": "66.8 ± 2.3", "unit": "mg/dL"}, {"measurement": "General conditions", "setting": "[4]", "value": "normal"}, {"measurement": "Kidney weight at autopsy", "setting": "[4]", "value": "slight weight decrease"}, {"measurement": "Pathological abnormality in the other organs and tissues", "setting": "[4]; autopsy", "value": "No pathological abnormality"}, {"measurement": "Cholestanol (serum), mean ± standard error", "setting": "[5]; 0.5% in feed, 2 weeks, n=6", "value": 0, "unit": "mg/dL"}, {"measurement": "Neutral fats (serum), mean ± standard error", "setting": "[5]; 0.5% in feed, 2 weeks, n=6", "value": "56.5 ± 8.2", "unit": "mg/dL"}, {"measurement": "Total cholesterol (serum), mean ± standard error", "setting": "[5]; 0.5% in feed, 2 weeks, n=6", "value": "81.3 ± 3.0", "unit": "mg/dL"}, {"measurement": "Serum metabolite", "setting": "[5]; CDF1 mice", "value": 0}, {"measurement": "Serum metabolite", "setting": "[5]; CDF1 mice, listed as 5-sitosten-3-one", "value": "no cholestanol and other metabolites were detected"}, {"measurement": "Serum cholesterol", "setting": "[5]; [8]", "value": 51, "unit": "%"}, {"measurement": "Serum neutral fats", "setting": "[5]; [8]", "value": 15, "unit": "%"}, {"measurement": "Liver weight difference", "setting": "[6]; 0.1% addition group", "value": "no significant difference"}, {"measurement": "Absolute weights of pancreas", "setting": "[6]; 0.1-0.5% addition groups", "value": "decreased in proportion to the amount of the medicament"}, {"measurement": "Changes in relative weight of pancreas", "setting": "[6]; 0.1-0.5% addition groups", "value": "not significant"}, {"measurement": "Decrease of absolute weight of kidney", "setting": "[6]; 0.3% addition group", "value": 17, "unit": "%"}, {"measurement": "Decrease of relative weight of kidney", "setting": "[6]; 0.3% addition group", "value": 10, "unit": "%"}, {"measurement": "Increase of relative weight of livers", "setting": "[6]; 0.3% addition group", "value": 17, "unit": "%"}, {"measurement": "Absolute weight of lungs and spleens", "setting": "[6]; 0.5% addition group", "value": "Decreases"}, {"measurement": "Decrease of absolute weight of kidney", "setting": "[6]; 0.5% addition group", "value": 32, "unit": "%"}, {"measurement": "Decrease of relative weight of kidney", "setting": "[6]; 0.5% addition group", "value": 17, "unit": "%"}, {"measurement": "Increase of absolute weight of livers", "setting": "[6]; 0.5% addition group", "value": 15, "unit": "%"}, {"measurement": "Increase of relative weight of livers", "setting": "[6]; 0.5% addition group", "value": 40, "unit": "%"}, {"measurement": "Relative weights of lungs and spleens", "setting": "[6]; 0.5% addition group", "value": "not different from those of the control group"}, {"measurement": "General conditions (appearance, properties of feces, breath and behavior)", "setting": "[6]; each experimental group, except for changes in body weight", "value": "No abnormality"}, {"measurement": "Histopathological change", "setting": "[6]; organs of treated CDF1 mice", "value": "absence of any histopathological change"}, {"measurement": "Amount of intraperitoneal fat relative to the control group", "setting": "[7]; 0.1% addition group", "value": 83, "unit": "%"}, {"measurement": "Feed efficiency (body weight gain/feed intake)", "setting": "[7]; 0.1% addition to feed", "value": 0.079}, {"measurement": "Intraperitoneal fat", "setting": "[7]; 0.1% addition to feed", "value": "996.0 ± 53.5", "unit": "mg"}, {"measurement": "Body weight gain", "setting": "[7]; 0.1% addition to feed", "value": 4.89, "unit": "g/mouse"}, {"measurement": "Changes in body weight (FIG. 4)", "setting": "[7]; 0.1%, 0.3% and 0.5% addition, dose-dependent", "value": "body weight decreases were observed"}, {"measurement": "Amount of intraperitoneal fat relative to the control group", "setting": "[7]; 0.3% addition group", "value": 63, "unit": "%"}, {"measurement": "Feed efficiency (body weight gain/feed intake)", "setting": "[7]; 0.3% addition to feed", "value": 0.062}, {"measurement": "Intraperitoneal fat", "setting": "[7]; 0.3% addition to feed", "value": "760.7 ± 36.9", "unit": "mg"}, {"measurement": "Body weight gain", "setting": "[7]; 0.3% addition to feed", "value": 3.62, "unit": "g/mouse"}, {"measurement": "Amount of intraperitoneal fat relative to the control group", "setting": "[7]; 0.5% addition group", "value": 42, "unit": "%"}, {"measurement": "Decrease of feed efficiency compared to the control group", "setting": "[7]; 0.5% addition group", "value": "about 80%"}, {"measurement": "Feed efficiency (body weight gain/feed intake)", "setting": "[7]; 0.5% addition to feed", "value": 0.016}, {"measurement": "Intraperitoneal fat", "setting": "[7]; 0.5% addition to feed", "value": "500.6 ± 79.2", "unit": "mg"}, {"measurement": "Body weight gain", "setting": "[7]; 0.5% addition to feed", "value": 0.84, "unit": "g/mouse"}]}]}
